{
  "source": "patent US11612627B2",
  "about": "“Method for preventing or treating thrombosis” (ANDONG NATIONAL UNIVERSITY INDUSTRY-ACADEMIC COOPERATION …, priority 2020, dated 2023)",
  "key": {"prothrombin": {"test_system": "prothrombin", "test": "Prothrombin time (plasma clotting)", "format": "biochemical", "conditions": "clot time sample/clot time DMSO, 3-carene section Table 3", "procedure": "In an Amelung coagulometer KC-1A tube (Japan), 70 μl of standard plasma (MD Pacific Co., China) was heated, together with 10 μl of each of samples having various concentrations, at 37° C. for 3 min before adding 130 μl of PT reagent thereto. […] This experiment was repeated three times independently. The prothrombin time was expressed as a mean value of the three measurements."}, "coagulation factors": {"test_system": "coagulation factors", "test": "aPTT (activated partial thromboplastin time)", "format": "biochemical", "conditions": "clot time sample/clot time DMSO, 3-carene section Table 3", "procedure": "Subsequently, 50 μl of CaCl2 (35 mM) was added. […] Instead of samples, DMSO served as a solvent control. […] The aPPT was expressed as a mean value of the measurements of three independent experiments.\nInstead of samples, DMSO served as a solvent control. […] The aPPT was expressed as a mean value of the measurements of three independent experiments."}, "human erythrocytes": {"test_system": "human erythrocytes", "test": "Human erythrocyte lysis (hemolysis) activity", "format": "cell-based", "procedure": "In this regard, erythrocyte lysis activity was assayed as reported previously (Sohn, Ho-Yong, 2014. Korean J. Microbiol. Biotechnol. 42: 285-292). Briefly, 100 μl of human erythrocytes, after being washed three times with PBS, was added to each well of 96-well microplates, mixed with 100 μl of each of samples having various concentrations, and incubated at 37° C. for 30 min. Subsequently, the reaction mixture was centrifuged for 10 min (1,500 rpm). After 100 μl of the supernatant was transferred to new microtiter plates, absorbance was read at 414 nm to analyze hemoglobin release according to hemolysis. DMSO (2%) was used as a solvent control for the samples while Triton X-100 (1 mg/ml) served as a control for hemolysis. Hemolysis activity was calculated according to the following equation: (%)Hemolysis=[(Abs. S−Abs. C)/(Abs. T−Abs. C)]×100\nAbs. S: Absorbance of sample\nAbs. C: Absorbance of DMSO\nAbs. T: Absorbance of Triton X-100 added control"}, "Human enriched platelets": {"test_system": "Human enriched platelets", "test": "Platelet aggregation inhibition activity (collagen, whole-blood aggregometer)", "format": "cell-based", "conditions": "for Platelet Aggregation Activity: AUC sample/AUC DMSO x 100; for Platelet Aggregation Curve: Amplitude / Platelet Aggregation Curve: Area under curve / Platelet Aggregation Curve: Lag time / Platelet Aggregation Curve: Slope: collagen-induced", "procedure": "Platelet Aggregation Inhibition Activity Human enriched platelets were used. They were washed once with a washing buffer (138 mM NaCl, 2.7 mM KCl, 12 mM NaHCO3, 0.36 mM NaH2PO4, 5.5 mM Glucose, 1 mM EDTA, pH 6.5) and then resuspended in a suspending buffer (138 mM NaCl, 2.7 mM KCl, 12 mM NaHCO3, 0.36 mM NaH2PO4, 5.5 mM Glucose, 0.49 mM MgCl2, 0.25% gelatin, pH 7.4). Centrifugation at 3,000 rpm for 10 min was followed by resuspension in a suspending buffer, with the platelets adjusted to the density of 4×10^9/ml. Subsequently, 1 ml of the suspension was incubated with 2.5 μl of collagen for 5 min, after which platelet aggregation was measured at 37° C. using a whole-blood aggregometer (Chrono-log, USA)."}, "[1]": {"conditions": "miscible with oil; cited from earlier work"}},
  "note": "Where “and” joins values, the source holds several entries; their conditions need not be identical. Equal entries are not always repeated.",
  "data": [
    {"compound": "O=C(O)c1ccc(O)cc1", "note": "[4-Hydroxybenzoic acid, 4-hydroxybenzoic acid]", "values": [
      {"measurement": "Blood coagulation inhibition activity: Prothrombin Time", "setting": "prothrombin; 0.5 mg/ml", "value": "0.99 ± 0.00"},
      {"measurement": "Blood coagulation inhibition activity: aPTT", "setting": "coagulation factors; 0.5 mg/ml", "value": "0.94 ± 0.15"}
    ]},
    {"compound": "C[C@@H]1[C@H](O)[C@@H](C)/C=C/C=C/C=C/C=C/C=C/C=C/C=C/[C@H](O[C@@H]2O[C@H](C)[C@@H](O)[C@H](N)[C@@H]2O)C[C@@H]2O[C@](O)(C[C@@H](O)C[C@@H](O)[C@H](O)CC[C@@H](O)C[C@@H](O)CC(=O)O[C@H]1C)C[C@H](O)[C@H]2C(=O)O", "note": "[Amphotericin B, amphotericin B]", "values": [
      {"measurement": "Human hemolytic activity", "setting": "human erythrocytes; 0.003 mg/ml, flower section Table 3", "value": "26.5 ± 9.6", "unit": "%"},
      {"measurement": "Human hemolytic activity", "setting": "human erythrocytes; 0.006 mg/ml, flower section Table 3", "value": "38.0 ± 0.7", "unit": "%"},
      {"measurement": "Human hemolytic activity", "setting": "human erythrocytes; 0.00625 mg/ml, flower section Table 6", "value": "38.0 ± 0.7", "unit": "%"},
      {"measurement": "Human hemolytic activity", "setting": "human erythrocytes; 0.0125 mg/ml, flower section Table 6", "value": "48.2 ± 5.9", "unit": "%"},
      {"measurement": "Human hemolytic activity", "setting": "human erythrocytes; 0.0125 mg/ml, leaf section Table 4", "value": "48.2 ± 5.9", "unit": "%"},
      {"measurement": "Human hemolytic activity", "setting": "human erythrocytes; 0.025 mg/ml, flower section Table 3", "value": "59.5 ± 6.3", "unit": "%"},
      {"measurement": "Human hemolytic activity", "setting": "human erythrocytes; 0.025 mg/ml, flower section Table 3, listed as amphotericin B", "value": "≥ 50", "unit": "%"},
      {"measurement": "Human hemolytic activity", "setting": "human erythrocytes; 0.025 mg/ml, flower section Table 6", "value": "59.5 ± 6.3", "unit": "%"},
      {"measurement": "Human hemolytic activity", "setting": "human erythrocytes; 0.025 mg/ml, leaf section Table 4", "value": "59.5 ± 6.3", "unit": "%"},
      {"measurement": "Human hemolytic activity", "setting": "human erythrocytes; 0.025 mg/ml, leaf section Table 4, listed as amphotericin B", "value": "≥ 50", "unit": "%"},
      {"measurement": "Human hemolytic activity", "setting": "human erythrocytes; 0.05 mg/ml, flower section Table 3", "value": "80.7 ± 7.3", "unit": "%"},
      {"measurement": "Human hemolytic activity", "setting": "human erythrocytes; 0.05 mg/ml, flower section Table 6", "value": "80.7 ± 7.3", "unit": "%"},
      {"measurement": "Human hemolytic activity", "setting": "human erythrocytes; 0.05 mg/ml, leaf section Table 4", "value": "80.7 ± 7.3", "unit": "%"},
      {"measurement": "Human hemolytic activity", "setting": "human erythrocytes; 0.1 mg/ml, flower section Table 3", "value": "95.8 ± 0.3", "unit": "%"},
      {"measurement": "Human hemolytic activity", "setting": "human erythrocytes; 0.1 mg/ml, flower section Table 6", "value": "95.8 ± 0.3", "unit": "%"},
      {"measurement": "Human hemolytic activity", "setting": "human erythrocytes; 0.1 mg/ml, leaf section Table 4", "value": "95.8 ± 0.3", "unit": "%"}
    ]},
    {"compound": "CC(=O)Oc1ccccc1C(=O)O", "note": "[Aspirin, aspirin]", "values": [
      {"measurement": "Platelet Aggregation Activity", "setting": "Human enriched platelets; 0.125 mg/ml", "value": 82.2, "unit": "%"},
      {"measurement": "Platelet Aggregation Curve: Amplitude", "setting": "Human enriched platelets; 0.125 mg/ml", "value": 14, "unit": "ohm"},
      {"measurement": "Platelet Aggregation Curve: Area under curve", "setting": "Human enriched platelets; 0.125 mg/ml", "value": 78.0},
      {"measurement": "Platelet Aggregation Curve: Lag time", "setting": "Human enriched platelets; 0.125 mg/ml", "value": 35, "unit": "s"},
      {"measurement": "Platelet Aggregation Curve: Slope", "setting": "Human enriched platelets; 0.125 mg/ml", "value": 2},
      {"measurement": "Platelet Aggregation Activity", "setting": "Human enriched platelets; 0.25 mg/ml", "value": 49.7, "unit": "%"},
      {"measurement": "Platelet Aggregation Curve: Amplitude", "setting": "Human enriched platelets; 0.25 mg/ml", "value": 8, "unit": "ohm"},
      {"measurement": "Platelet Aggregation Curve: Area under curve", "setting": "Human enriched platelets; 0.25 mg/ml", "value": 47.2},
      {"measurement": "Platelet Aggregation Curve: Lag time", "setting": "Human enriched platelets; 0.25 mg/ml", "value": 128, "unit": "s"},
      {"measurement": "Platelet Aggregation Curve: Slope", "setting": "Human enriched platelets; 0.25 mg/ml", "value": 1}
    ]},
    {"compound": "CC1=CCC2C(C1)C2(C)C", "note": "(stereo not shown) [Extract 3-Carene, 3-carene]", "values": [
      {"measurement": "Blood coagulation inhibition activity: Prothrombin Time", "setting": "prothrombin; 0.5 mg/ml", "value": "1.05 ± 0.02"},
      {"measurement": "Blood coagulation inhibition activity: Prothrombin Time", "setting": "prothrombin; 0.75 mg/ml", "value": "1.29 ± 0.00"},
      {"measurement": "Blood coagulation inhibition activity: Prothrombin Time", "setting": "prothrombin; 1.0 mg/ml", "value": "1.43 ± 0.09"},
      {"measurement": "Blood coagulation inhibition activity: Prothrombin Time", "setting": "prothrombin; 1.0 mg/ml, listed as 3-carene", "value": 1.43},
      {"measurement": "Blood coagulation inhibition activity: aPTT", "setting": "coagulation factors; 0.5 mg/ml", "value": "1.23 ± 0.05"},
      {"measurement": "Blood coagulation inhibition activity: aPTT", "setting": "coagulation factors; 0.75 mg/ml", "value": "1.61 ± 0.03"},
      {"measurement": "Blood coagulation inhibition activity: aPTT", "setting": "coagulation factors; 1.0 mg/ml", "value": "2.26 ± 0.08"},
      {"measurement": "Blood coagulation inhibition activity: aPTT", "setting": "coagulation factors; 1.0 mg/ml, listed as 3-carene", "value": 2.26},
      {"measurement": "Solubility in water", "setting": "[1]", "value": "not soluble in water"}
    ]},
    {"compound": "Triton X-100", "values": [
      {"measurement": "Human hemolytic activity", "setting": "human erythrocytes; 1.0 mg/ml, 37° C. 30 min, leaf section Table 4", "value": "100% and 100.0 ± 0.1%"},
      {"measurement": "Human hemolytic activity", "setting": "human erythrocytes; 1.0 mg/ml, flower section Table 3", "value": "100% and 100.6 ± 0.8%"},
      {"measurement": "Human hemolytic activity", "setting": "human erythrocytes; 1.0 mg/ml, flower section Table 6", "value": "100.6 ± 0.8", "unit": "%"}
    ]}
  ]
}
